Source: patent US8183260B2, “5H-thioeno(3,4-c)pyrrole-4,6-dione derivatives and their use as tumor necrosis factor inhibitors” (Tianjin Hemay Bio-Tech Co., Ltd., priority 2005, dated 2012)

System: TNFα released by PBMCs
Assay: Inhibition of TNFα release from monocytes (PBMC) stimulated by LPS, ELISA
Type: cell-based
Settings: Homo sapiens, LPS 0.1 μg/mL, 20 hr incubation; for inhibition at 100 µM: test concentration 100 μM; for inhibition at 100 µM / inhibition at 3 µM: read-out: Degree of inhibition (%); for IC50: concentration giving 50% TNFα inhibition; for inhibition at 3 µM: test concentration 3.0 μM
Method: Cytokine TNFα released by PBMCs in the peripheral blood after […] (LPS) stimulation in vitro was studied. The followings are experimental protocols for studying cytokine TNFα released by PBMCs, which are inhibited by compounds of the invention.
PBMCs were obtained from blood of at least three volunteers after heparin treatment, using gradient extraction. PBMCs were collected and washed three times with a 1640 medium (10% calf serum, 2 mM L-glutamine, […], 50 μg/mL streptomycin, 50 U/mL penicillin), then placed into wells of a 24-well cell culture plate. The concentration was adjusted to 1×10^6 cells/mL with 1640 culture medium. […] The resultant solution was added to the cell culture medium and the culture plate was placed in a CO2 incubator (5% CO2, 90% humidity) for 1 hour. Then, LPS (Sigma) was added and its concentration was adjusted to 0.1 μg/mL (except for the control).
After a 20 hr incubation period, the content of TNFα in supernatant of the above PBMC culture medium was assayed by ELISA kit (America Genzyme Co), using standard method. The measured value of the control well (not treated with active components), and the measured value of the test wells containing the test compounds was used to calculate the TNFα inhibition rate. The concentration of compounds giving a 50% TNFα inhibition (IC50 value) was calculated using nonlinear regression analysis. Each concentration was determined twice and an average value was calculated.

With `O=C1CCC(N2C(=O)c3cscc3C2=O)C(=O)N1` (stereo not shown) [Example 10, 5-(2,6-dioxopiperidin-3-yl)-5H-thieno(3,4-c)pyrrole-4,6-dione] the inhibition at 100 µM was 32%.

`CN1C(=O)CCC(N2C(=O)c3cscc3C2=O)C1=O` (stereo not shown) [Example 13, 5-(1-methyl-2,6-dioxopiperidin-3-yl)-5H-thieno(3,4-c)pyrrole-4,6-dione] was tested, and the inhibition at 100 µM was 20%.

`COC(=O)CN1C(=O)CCC(N2C(=O)c3cscc3C2=O)C1=O` (stereo not shown) [Example 15, 5-(1-methoxycarbonylmethyl-2,6-dioxopiperidin-3-yl)-5H-thieno(3,4-c)pyrrole-4,6-dione] was tested, and the inhibition at 100 µM was 18%.

With `COCCN1C(=O)CCC(N2C(=O)c3cscc3C2=O)C1=O` (stereo not shown) [Example 16, 5-(1-(2-methoxyethyl)-2,6-dioxopiperidin-3-yl)-5H-thieno(3,4-c)pyrrole-4,6-dione] the inhibition at 100 µM was 28%.

`O=C1CCC(N2C(=O)c3csc([N+](=O)[O-])c3C2=O)C(=O)N1` (stereo not shown) [Example 18, 1-nitro-5-(2,6-dioxopiperidin-3-yl)-5H-thieno(3,4-c)pyrrole-4,6-dione] gave an inhibition at 100 µM of 28%.

Work on `Nc1scc2c1C(=O)N(C1CCC(=O)NC1=O)C2=O` (stereo not shown) [Example 19, 1-amino-5-(2,6-dioxopiperidin-3-yl)-5H-thieno(3,4-c)pyrrole-4,6-dione] yielded an IC50 of 6 nM and an inhibition at 3 µM of 95%.

`CNc1scc2c1C(=O)N(C1CCC(=O)NC1=O)C2=O` (stereo not shown) [Example 22, 1-methylamino-5-(2,6-dioxopiperidin-3-yl)-5H-thieno(3,4-c)pyrrole-4,6-dione] was tested, and the IC50 was 500 nM and the inhibition at 3 µM was 62%.

Work on `CC(=O)Nc1scc2c1C(=O)N(C1CCC(=O)NC1=O)C2=O` (stereo not shown) [Example 24, 1-acetamido-5-(2,6-dioxopiperidin-3-yl)-5H-thieno(3,4-c)pyrrole-4,6-dione] yielded an inhibition at 3 µM of 48%.

Work on `CC1(N2C(=O)c3csc(N)c3C2=O)CCC(=O)NC1=O` (stereo not shown) [Example 27, 1-amino-5-(3-methyl-2,6-dioxopiperidin-3-yl)-5H-thieno(3,4-c)pyrrole-4,6-dione] yielded an IC50 of 50 nM and an inhibition at 3 µM of 84%.

`CN1C(=O)CCC(N2C(=O)c3csc(N)c3C2=O)C1=O` (stereo not shown) [Example 31, 1-amino-5-(1-methyl-2,6-dioxopiperidin-3-yl)-5H-thieno(3,4-c)pyrrole-4,6-dione] was tested, and the IC50 was 350 nM and the inhibition at 3 µM was 71%.

With `O=C1CCC(N2C(=O)c3ccccc3C2=O)C(=O)N1` (stereo not shown) [Thalidomide, reference compound] the IC50 was 183000 nM and the inhibition at 100 µM was 22%.
